Experimental findings from BindingDB's records for doi:10.1021/jm00001a011 (University of Auckland, 1995) are described below.

Molecules are shown by their SMILES.

This experiment is described as follows: Inhibitory concentration of the against pp60v-src tyrosine kinase obtained from v-src baculovirus-infected insect cells.

Take `CN(C)C(=O)c1c(SSc2c(C(=O)N(C)C)c3ccccc3n2C)n(C)c2ccccc12` [1,3N,3N-trimethyl-2-(3-dimethylcarbamoyl-1-methyl-1H-2-indolyldisulfanyl)-1H-3-indolecarboxamide0.5 H2O]: 0.5 µM corresponded to half-maximal inhibition (IC50). The value for `O=C(O)CCc1c(SSc2[nH]c3ccccc3c2CCC(=O)O)[nH]c2ccccc12` [2,2 -Dithiobis(1H-indole-3-propanoic acid)] was 5.1 µM; that for `Cn1c(SSc2c(C(N)=O)c3ccccc3n2C)c(C(N)=O)c2ccccc21` [2-(3-carbamoyl-1-methyl-1H-2-indolyldisulfanyl)-1-methyl-1H-3-indolecarboxamide0.5 H2O] was 0.8 µM; that for `Cn1c(SSc2c(C(=O)Nc3ccccc3C(=O)O)c3ccccc3n2C)c(C(=O)Nc2ccccc2C(=O)O)c2ccccc21` [2-{2-[3-(2-carboxyphenylcarbamoyl)-1-methyl-1H-2-indolyldisulfanyl]-1-methyl-1H-3-indolylcarboxamido}benzoic acid2.0 H2O] was 3.5 µM.

Consider `Cn1c(SSc2c(C(=O)Nc3cccc(C(=O)O)c3)c3ccccc3n2C)c(C(=O)Nc2cccc(C(=O)O)c2)c2ccccc21` [3-{2-[3-(3-carboxyphenylcarbamoyl)-1-methyl-1H-2-indolyldisulfanyl]-1-methyl-1H-3-indolylcarboxamido}benzoic acid0.5 H2O], for which the IC50 is 5.3 µM. `Cn1c(SSc2c(C(=O)NCC(O)CO)c3ccccc3n2C)c(C(=O)NCC(O)CO)c2ccccc21` (configuration not stated) [3N-(2,3-dihydroxypropyl)-2-[3-(2,3-dihydroxypropylcarbamoyl)-1-methyl-1H-2-indolyldisulfanyl]-1-methyl-1H-3-indolecarboxamide] gave an IC50 of 22.5 µM.

As to `Cn1c(SSc2c(C(=O)Nc3cccs3)c3ccccc3n2C)c(C(=O)Nc2cccs2)c2ccccc21` [3N-(2-thienyl)-1-methyl-2-[1-methyl-3-(2-thienylcarbamoyl)-1H-2-indolyldisulfanyl]-1H-3-indolecarboxamide], the IC50 was greater than 50 µM. The value for `Cn1c(SSc2c(C(=O)Nc3cccnc3)c3ccccc3n2C)c(C(=O)Nc2cccnc2)c2ccccc21` [3N-(3-pyridyl)-1-methyl-2-[1-methyl-3-(3-pyridylcarbamoyl)-1H-2-indolyldisulfanyl]-1H-3-indolecarboxamide] was greater than 50 µM; that for `Cn1c(SSc2c(C(=O)NCc3ccccc3)c3ccccc3n2C)c(C(=O)NCc2ccccc2)c2ccccc21` [3N-benzyl-2-(3-benzylcarbamoyl-1-methyl-1H-2-indolyldisulfanyl)-1-methyl-1H-3-indolecarboxamide] was 8 µM; that for `O=C(NCc1ccccc1)c1c(SSc2[nH]c3ccccc3c2C(=O)NCc2ccccc2)[nH]c2ccccc12` [3N-benzyl-2-(3-benzylcarbamoyl-1H-2-indolyldisulfanyl)-1H-3-indolecarboxamide] was 16.3 µM.

`CCn1c(SSc2c(C(=O)Nc3ccccc3)c3ccccc3n2CC)c(C(=O)Nc2ccccc2)c2ccccc21` [3N-phenyl-1-ethyl-2-(1-ethyl-3-phenylcarbamoyl-1H-2-indolyldisulfanyl)-1H-3-indolecarboxamide] returned an IC50 greater than 100 µM. The value for `O=C(Nc1ccccc1)c1c(SSc2[nH]c3ccccc3c2C(=O)Nc2ccccc2)[nH]c2ccccc12` [3N-phenyl-2-(3-phenylcarbamoyl-1H-2-indolyldisulfanyl)-1H-3-indolecarboxamide] was 7.6 µM; that for `Cn1c(SSc2c(C(=O)c3ccc(C(=O)O)cc3)c3ccccc3n2C)c(C(=O)c2ccc(C(=O)O)cc2)c2ccccc21` [4-{2-[3-(4-carboxybenzoyl)-1-methyl-1H-2-indolyldisulfanyl]-1-methyl-1H-3-indolylcarbonyl}benzoic acid2 H2O] was 4 µM. Next, `Cn1c(SSc2c(C(=O)Nc3ccc(C(=O)O)cc3)c3ccccc3n2C)c(C(=O)Nc2ccc(C(=O)O)cc2)c2ccccc21` [4-{2-[3-(4-carboxyphenylcarbamoyl)-1-methyl-1H-2-indolyldisulfanyl]-1-methyl-1H-3-indolylcarboxamido}benzoic acid H2O]: 4.3 µM; `Cn1c(SSc2c(C(=O)NCC(=O)O)c3ccccc3n2C)c(C(=O)NCC(=O)O)c2ccccc21` [({2-[3-(Carboxymethyl-carbamoyl)-1-methyl-1H-indol-2-yldisulfanyl]-1-methyl-1H-indole-3-carbonyl}-amino)-acetic acid]: 1 µM. In turn, `Cc1c(SSc2c(C)c3ccccc3n2C)n(C)c2ccccc12` [di(1,3-dimethyl-1H-2-indolyl) disulfide] yielded an IC50 greater than 50 µM.

In the case of `c1ccc(-c2c(SSc3[nH]c4ccccc4c3-c3ccccc3)[nH]c3ccccc23)cc1` [di(3-phenyl-1H-2-indolyl) disulfide], the IC50 is greater than 100 µM. The value for `COC(=O)c1ccccc1NC(=O)c1c(SSc2c(C(=O)Nc3ccccc3C(=O)OC)c3ccccc3n2C)n(C)c2ccccc12` [methyl 2-{1-methyl-2-[1-methyl-3-(2-methyloxycarbonylphenylcarbamoyl)-1H-2-indolyldisulfanyl]-1H-3-indolylcarboxamido}benzoate0.5 H2O] was 15.6 µM. `COC(=O)c1cccc(NC(=O)c2c(SSc3c(C(=O)Nc4cccc(C(=O)OC)c4)c4ccccc4n3C)n(C)c3ccccc23)c1` [methyl 3-{1-methyl-2-[1-methyl-3-(3-methyloxycarbonylphenylcarbamoyl)-1H-2-indolyldisulfanyl]-1H-3-indolylcarboxamido}benzoate] showed an IC50 of 5.4 µM. Take `COC(=O)c1ccc(C(=O)c2c(SSc3c(C(=O)c4ccc(C(=O)OC)cc4)c4ccccc4n3C)n(C)c3ccccc23)cc1` [methyl 4-{1-methyl-2-[1-methyl-3-(4-methyloxycarbonylbenzoyl)-1H-2-indolyldisulfanyl]-1H-3-indolylcarbonyl}benzoate]: the half-maximal inhibitory concentration (IC50) was 7.1 µM. Consider `COC(=O)c1ccc(CNC(=O)c2c(SSc3c(C(=O)NCc4ccc(C(=O)OC)cc4)c4ccccc4n3C)n(C)c3ccccc23)cc1` [methyl 4-{1-methyl-2-[1-methyl-3-(4-methyloxycarbonylbenzylcarbamoyl)-1H-2-indolyldisulfanyl]-1H-3-indolylcarboxamidomethyl}benzoate0.5 H2O], for which the half-inhibitory concentration (IC50) came out at 2.5 µM. Compared with the last compound, the IC50 is about 2.8-fold lower. On to `COC(=O)c1ccc(NC(=O)c2c(SSc3c(C(=O)Nc4ccc(C(=O)OC)cc4)c4ccccc4n3C)n(C)c3ccccc23)cc1` [methyl 4-{1-methyl-2-[1-methyl-3-(4-methyloxycarbonylphenylcarbamoyl)-1H-2-indolyldisulfanyl]-1H-3-indolylcarboxamido}benzoate H2O], for which the half-inhibitory concentration (IC50) came out at 4.2 µM.
